ChEMBL document CHEMBL1158670, “Mediation of the cytotoxicity of lanostanoids and steroids of Ganoderma tsugae through apoptosis and cell cycle” (J Nat Prod, 1998)
Converted amounts (≈) assume the structure as drawn. The source made the active and inactive calls. The rule behind the calls is not given here.

How the values were obtained:
[1] = Cell cycle arrest in human Hep3B cells by accumulation at subG1 phase at 24 ug/mL after 24 hrs by flow cytometry; format: functional, cell-based; settings: Hep 3B2
[2] = Cell cycle arrest in human Hep3B cells by accumulation at G0/G1 phase at 20 ug/mL after 24 hrs by flow cytometry; format: functional, cell-based; settings: Hep 3B2
[3] = Cell cycle arrest in human Hep3B cells by accumulation at S phase at 100 ug/mL after 24 hrs by flow cytometry; format: functional, cell-based; settings: Hep 3B2
[4] = Cell cycle arrest in human Hep3B cells by accumulation at G0/G1 phase at 100 ug/mL after 24 hrs by flow cytometry; format: functional, cell-based; settings: Hep 3B2
[5] = Cell cycle arrest in human Hep3B cells by accumulation at G2/M phase at 50 ug/mL after 24 hrs by flow cytometry; format: functional, cell-based; settings: Hep 3B2
[6] = Cell cycle arrest in human Hep3B cells by accumulation at S phase at 20 ug/mL after 24 hrs by flow cytometry; format: functional, cell-based; settings: Hep 3B2
[7] = Cell cycle arrest in human Hep3B cells by accumulation at S phase at 35 ug/mL after 24 hrs by flow cytometry; format: functional, cell-based; settings: Hep 3B2
[8] = Cell cycle arrest in human Hep3B cells by accumulation at S phase at 50 ug/mL after 24 hrs by flow cytometry; format: functional, cell-based; settings: Hep 3B2
[9] = Cell cycle arrest in human Hep3B cells by accumulation at G2/M phase at 20 ug/mL after 24 hrs by flow cytometry; format: functional, cell-based; settings: Hep 3B2
[10] = Cell cycle arrest in human Hep3B cells by accumulation at G0/G1 phase at 35 ug/mL after 24 hrs by flow cytometry; format: functional, cell-based; settings: Hep 3B2
[11] = Cell cycle arrest in human Hep3B cells by accumulation at G2/M phase at 100 ug/mL after 24 hrs by flow cytometry; format: functional, cell-based; settings: Hep 3B2
[12] = Cell cycle arrest in human Hep3B cells by accumulation at G2/M phase at 35 ug/mL after 24 hrs by flow cytometry; format: functional, cell-based; settings: Hep 3B2
[13] = Cell cycle arrest in human Hep3B cells by accumulation at G2/M phase after 24 hrs by flow cytometry; format: functional, cell-based, Hep 3B2
[14] = Cell cycle arrest in human Hep3B cells by accumulation at G0/G1 phase at 50 ug/mL after 24 hrs by flow cytometry; format: functional, cell-based; settings: Hep 3B2

SMILES | Activity [1] | Activity [2] [%] | Activity [3] [%] | Activity [4] [%] | Activity [5] [%] | Activity [6] [%] | Activity [7] [%] | Activity [8] [%] | Activity [9] [%] | Activity [10] [%] | Activity [11] [%] | Activity [12] [%] | IC50 [13] [µg/mL] | Activity [14] [%]
CC(=O)O[C@@H]1CC[C@]2(C)C3=C(CC[C@H]2C1(C)C)[C@]1(C)CC[C@H]([C@@H](CCC=C(C)C)C(=O)O[C@@H]2O[C@H](CO)[C@@H](O)[C@H](O)[C@H]2O)[C@@]1(C)CC3 | Active | – | – | – | – | – | – | – | – | – | – | – | – | –
CC(C)[C@@H](C)/C=C/[C@@H](C)[C@H]1CC[C@H]2C3=CC[C@H]4C[C@H](O)[C@@H](O)C[C@]4(C)[C@@]3(O)CC[C@]12C | – | 50.6 | 37 | 57.8 | 9.2 | 36.8 | 35 | 35.5 | 12.6 | 55.3 | 5.2 | 9.8 | 87.1 (≈ 202 µM) | 55.3
